In the NIST ThermoML archive (doi:10.1016/j.tca.2012.01.024):
± gives the expanded uncertainty stated by the source.

Experiment: excess molar enthalpy (molar enthalpy of mixing); xn = mol fraction of the nth substance listed
Conditions: 1273.2 K, 101 kPa, Liquid, Calvet calorimetry

With `[Sb]` [antimony] + [Sn] the excess molar enthalpy (x1 = 0.2665) was -0.257 ± 0.00287 kcal/mol, the excess molar enthalpy (x1 = 0.4886) was -0.315 ± 0.00335 kcal/mol and the excess molar enthalpy (x1 = 0.7372) was -0.233 ± 0.00263 kcal/mol.
For `[Ni]` [nickel] + [Sn], the excess molar enthalpy (x1 = 0.213) was -2.29 ± 0.0232 kcal/mol.
`[Ni]` [nickel] + [Sb] gave an excess molar enthalpy (x1 = 0.2109) of -2.58 ± 0.0263 kcal/mol.
